According to patent publication US8058306B2, “Phenyl pyrrole aminoguanidine derivatives” (Action Pharma A/S, priority 2006, dated 2011):
Where “and” joins values, the source holds several entries; their conditions need not be identical. Identical values can stand only once. Entries after “also recorded” stand apart in the source; their conditions may differ. Like-named read-outs stand apart in the source and are kept apart here.

Assay: Plasma kinetics in rat following intravenous and oral administration
Assay type: in vivo, Sprague Dawley rats
Details: male rats
Protocol: This study determined the intravenous pharmacokinetics and oral bioavailability of compound 1 of the invention (see FIG. 1A, structure no. 1), compound 2 of the invention (see FIG. 1D, structure no. 19) and compound 3 of the invention (see FIG. 1I, structure no. 53) following administration to Sprague Dawley rats at a dose level of 10 mg/kg.
Six groups of 3 male rats received either a single intravenous or single oral administration of compound 1, 2 or 3 of the invention at a dose level of 10 mg/kg. Blood samples were obtained at various times after dosing. Plasma samples were analysed for unchanged test item using a suitable LC-MS/MS method. Pharmacokinetic parameters were estimated from individual plasma concentrations.
Eighteen male rats each received either a single intravenous or a single oral administration of either compound 1, 2 or 3 at a dose level of 10 mg/kg. The formulation was orally administered to each animal by gastric gavage and intravenously administered to each animal via a tail vein. The dose was administered at a dose volume of 5 mL/kg. The formulations were administered to each animal according to the details in the following table:
Blood samples (ca 0.3 mL) were removed from the femoral vein of each animal into tubes containing lithium heparin as anticoagulant.
Blood samples were collected from 3 rats at the following times after dose administration: • 3, 6, 15, 45 min and 1.5, 2.5, 4, 6, 8, 24 h post dose. Oral Administration
Blood samples were collected from 3 rats at the following times after dose administration: • 5, 15, 45 min and 1.5, 2.5, 4, 6, 8, 24 h post dose. Processing of Blood Samples
Pharmacokinetic parameters of compound 1, 2 and 3 were derived by non-compartmental analysis using WinNonLin Pro version 5.0.1 (Pharsight 2005). The following parameters were derived, where appropriate, from the individual plasma concentration versus time profiles:
• F % The absolute oral bioavailability calculated as [AUC0-t (oral)*Dose(iv)/AUC0-t (iv)*Dose (oral)]*100 based on mean values derived after oral and intravenous administration Consideration was given to the estimation of λz and corresponding t1/2 values. Three or more points are required within the terminal phase for λz and t1/2 to be estimated. The following additional variables were tabulated to aid identification of potentially unreliable estimates of t1/2 and AUC:
Pharmacokinetic parameters were reported as geometric mean except Tmax which was reported as the median. Geometric coefficient of variation was calculated as: […]
Actual sampling times were used for all calculations of pharmacokinetic parameters. Plasma concentrations that were below the limit of quantification were taken as zero for the pharmacokinetic analysis.

[1] = oral 10 mg/kg, individual animals, acetate, 10 mg/kg

Cmax (male, Sprague Dawley, rat, plasma, po, 10 mg/kg, oral 10 mg/kg, Arithmetic Mean, read-out: Cmax): 0.104 µg/mL
Tmax (male, Sprague Dawley, rat, plasma, po, 10 mg/kg, oral 10 mg/kg, Arithmetic Mean, read-out: tmax): 6.65 h
AUC(0-t) (male, Sprague Dawley, rat, plasma, po, 10 mg/kg, oral 10 mg/kg, Geometric mean, read-out: AUC0-t): 1.34 µg·h/mL
Cmax (male, Sprague Dawley, rat, plasma, po, 10 mg/kg, oral 10 mg/kg, Geometric mean, read-out: Cmax): 0.104 µg/mL
Tmax (male, Sprague Dawley, rat, plasma, po, 10 mg/kg, oral 10 mg/kg, Geometric mean, read-out: tmax): 6.34 h
AUC(0-t) (male, Sprague Dawley, rat, plasma, po, 10 mg/kg, oral 10 mg/kg, Median, read-out: AUC0-t): 1.46 µg·h/mL
Cmax (male, Sprague Dawley, rat, plasma, po, 10 mg/kg, oral 10 mg/kg, Median, read-out: Cmax): 0.104 µg/mL
Tmax (male, Sprague Dawley, rat, plasma, po, 10 mg/kg, oral 10 mg/kg, Median, read-out: tmax): 7.97 h
AUC(0-inf) (male, Sprague Dawley, rat, plasma, po, 10 mg/kg, oral 10 mg/kg, individual animals): 1.13 µg·h/mL
AUC(0-t) (male, Sprague Dawley, rat, plasma, po, 10 mg/kg, oral 10 mg/kg, individual animals, read-out: AUC0-t): 1.5 µg·h/mL
Cmax (male, Sprague Dawley, rat, plasma, po, 10 mg/kg, oral 10 mg/kg, individual animals, read-out: Cmax): 0.106 µg/mL
MRT (male, Sprague Dawley, rat, plasma, po, 10 mg/kg, oral 10 mg/kg, individual animals, read-out: MRT): 7.86 h
half-life (male, Sprague Dawley, rat, plasma, po, 10 mg/kg, oral 10 mg/kg, individual animals, read-out: t1/2 (converted)): 4.61 h
Tmax (male, Sprague Dawley, rat, plasma, po, 10 mg/kg, oral 10 mg/kg, individual animals, read-out: tmax): 7.97 h
Tmax (male, Sprague Dawley, rat, plasma, po, 10 mg/kg, oral 10 mg/kg, from mean plasma concentrations, read-out: time post dose at which maximum plasma concentration was observed (tmax)): 8 h
half-life (male, Sprague Dawley, rat, plasma, po, 10 mg/kg, oral 10 mg/kg, read-out: apparent terminal half-life (converted)): 4.61 h
concentration at 0.08 h (male, Sprague Dawley, rat, plasma, po, 10 mg/kg, single oral 10 mg/kg, 0.08 h, individual animals, LLOQ 2.50 (Table X: * 5.0, ** 25, diluted samples), read-out: Sample Concentration in plasma): 0.00266 µg/mL
concentration at 0.08 h (male, Sprague Dawley, rat, plasma, po, 10 mg/kg, single oral 10 mg/kg, 0.08 h, mean, read-out: Mean Concentration in plasma): 0.00266 µg/mL
concentration at 0.25 h (male, Sprague Dawley, rat, plasma, po, 10 mg/kg, single oral 10 mg/kg, 0.25 h, individual animals, read-out: Sample Concentration in plasma): 0.00653 µg/mL
concentration at 0.25 h (male, Sprague Dawley, rat, plasma, po, 10 mg/kg, single oral 10 mg/kg, 0.25 h, mean of 3, read-out: Mean Concentration in plasma): 0.00729 µg/mL
concentration at 0.75 h (male, Sprague Dawley, rat, plasma, po, 10 mg/kg, single oral 10 mg/kg, 0.75 h, mean of 3, read-out: Mean Concentration in plasma): 0.0173 µg/mL
concentration at 1.5 h (male, Sprague Dawley, rat, plasma, po, 10 mg/kg, single oral 10 mg/kg, 1.5 h, mean of 3, read-out: Mean Concentration in plasma): 0.0391 µg/mL
concentration at 2.5 h (male, Sprague Dawley, rat, plasma, po, 10 mg/kg, single oral 10 mg/kg, 2.5 h, individual animals, read-out: Sample Concentration in plasma): 0.0659 µg/mL
concentration at 2.5 h (male, Sprague Dawley, rat, plasma, po, 10 mg/kg, single oral 10 mg/kg, 2.5 h, mean of 3, read-out: Mean Concentration in plasma): 0.0601 µg/mL
concentration at 4 h (male, Sprague Dawley, rat, plasma, po, 10 mg/kg, single oral 10 mg/kg, 4 h, individual animals, read-out: Sample Concentration in plasma): 0.102 µg/mL
concentration at 4 h (male, Sprague Dawley, rat, plasma, po, 10 mg/kg, single oral 10 mg/kg, 4 h, mean of 3, read-out: Mean Concentration in plasma): 0.0903 µg/mL
concentration at 6 h (male, Sprague Dawley, rat, plasma, po, 10 mg/kg, single oral 10 mg/kg, 6 h, individual animals, read-out: Sample Concentration in plasma): 0.0723 µg/mL
concentration at 6 h (male, Sprague Dawley, rat, plasma, po, 10 mg/kg, single oral 10 mg/kg, 6 h, mean of 3, read-out: Mean Concentration in plasma): 0.0865 µg/mL
concentration at 8 h (male, Sprague Dawley, rat, plasma, po, 10 mg/kg, single oral 10 mg/kg, 8 h, individual animals, LLOQ 2.50, read-out: Sample Concentration in plasma): 0.0688 µg/mL
concentration at 8 h (male, Sprague Dawley, rat, plasma, po, 10 mg/kg, single oral 10 mg/kg, 8 h, mean, LLOQ 2.50, read-out: Mean Concentration in plasma): 0.0929 µg/mL
concentration at 24 h (male, Sprague Dawley, rat, plasma, po, 10 mg/kg, single oral 10 mg/kg, 24 h, individual animals, LLOQ 2.50, read-out: Sample Concentration in plasma): 0.00535 µg/mL
concentration at 24 h (male, Sprague Dawley, rat, plasma, po, 10 mg/kg, single oral 10 mg/kg, 24 h, mean, LLOQ 2.50, read-out: Mean Concentration in plasma): 0.00768 µg/mL
mean absorption time (MAT) (oral 10 mg/kg): 2.10 h
MAT (oral 10 mg/kg, individual animals): 2.10 h
AUC(0-t) [1]: 1.094 µg·h/mL and 1.46 µg·h/mL
Cmax [1]: 0.102 µg/mL
Tmax [1]: 4.00 h and 7.98 h
maximum observed plasma concentration, mean value (oral 10 mg/kg, at tmax): 92.9 ng/mL
Sample Concentration in plasma (single intravenous 10 mg/kg, 0.05 h, individual animals, acetate, 10 mg/kg): 1650 ng/mL and 3630 ng/mL and 1460 ng/mL
Sample Concentration in plasma (single intravenous 10 mg/kg, 0.1 h, individual animals, acetate, 10 mg/kg): 1220 ng/mL and 1200 ng/mL
Sample Concentration in plasma (single intravenous 10 mg/kg, 0.25 h, individual animals, acetate, 10 mg/kg): 830 ng/mL and 696 ng/mL
Sample Concentration in plasma (single intravenous 10 mg/kg, 0.75 h, individual animals, acetate, 10 mg/kg): 332 ng/mL and 402 ng/mL
Sample Concentration in plasma (single intravenous 10 mg/kg, 1.5 h, individual animals, acetate, 10 mg/kg): 236 ng/mL and 340 ng/mL
Sample Concentration in plasma (single intravenous 10 mg/kg, 2.5 h, individual animals, acetate, 10 mg/kg): 202 ng/mL and 259 ng/mL
Sample Concentration in plasma (single intravenous 10 mg/kg, 4 h, individual animals, acetate, 10 mg/kg): 208 ng/mL and 238 ng/mL
Sample Concentration in plasma (single intravenous 10 mg/kg, 6 h, individual animals, acetate, 10 mg/kg): 172 ng/mL and 168 ng/mL
Sample Concentration in plasma (single intravenous 10 mg/kg, 8 h, individual animals, LLOQ 2.50, acetate, 10 mg/kg): 151 ng/mL and 135 ng/mL and 5.04 ng/mL
Sample Concentration in plasma (single intravenous 10 mg/kg, 24 h, individual animals, LLOQ 2.50, acetate, 10 mg/kg): 13.2 ng/mL and 16.8 ng/mL and 30.7 ng/mL
Sample Concentration in plasma (single oral 10 mg/kg, 0.08 h, individual animals, LLOQ 2.50 (Table X: * 5.0, ** 25, diluted samples), acetate, 10 mg/kg): *<LLOQ; also recorded: **<LLOQ
Sample Concentration in plasma (single oral 10 mg/kg, 0.25 h, individual animals, acetate, 10 mg/kg): 5.92 ng/mL and 9.43 ng/mL
Sample Concentration in plasma (single oral 10 mg/kg, 0.75 h, individual animals, acetate, 10 mg/kg): 11.8 ng/mL and 15.9 ng/mL and 24.1 ng/mL
Sample Concentration in plasma (single oral 10 mg/kg, 1.5 h, individual animals, acetate, 10 mg/kg): 20.5 ng/mL and 52.1 ng/mL and 44.6 ng/mL
Sample Concentration in plasma (single oral 10 mg/kg, 2.5 h, individual animals, acetate, 10 mg/kg): 57.1 ng/mL and 57.2 ng/mL
Sample Concentration in plasma (single oral 10 mg/kg, 4 h, individual animals, acetate, 10 mg/kg): 79.4 ng/mL and 89.4 ng/mL
Sample Concentration in plasma (single oral 10 mg/kg, 6 h, individual animals, acetate, 10 mg/kg): 98.4 ng/mL and 88.8 ng/mL
Sample Concentration in plasma (single oral 10 mg/kg, 8 h, individual animals, LLOQ 2.50, acetate, 10 mg/kg): 104 ng/mL and 106 ng/mL
Sample Concentration in plasma (single oral 10 mg/kg, 24 h, individual animals, LLOQ 2.50, acetate, 10 mg/kg): 7.50 ng/mL and 10.2 ng/mL
Structure (SMILES): N=C(N)NN=CC=Cc1cccn1-c1ccc(Cl)cc1 [Compound 1, [1-(4-chlorophenyl)-1H-pyrrol-2-yl-allylideneamino]guanidinium acetate]
adverse effects (single intravenous or oral administration, 10 mg/kg, acetate): No adverse effects; also recorded: No adverse affects
